Experimental data reported in patent US20240228488A1 (TAKEDA PHARMACEUTICAL COMPANY LIMITED, priority 2021, published 2024).

Target: human activated kallikrein enzyme (Homo sapiens, UniProt P03952)
Test: Plasma kallikrein inhibition, fluorogenic PFR-AMC substrate, 500 pM activated kallikrein format
Format: biochemical
Settings: 500 pM activated kallikrein, 300 uM PFR-AMC, 30 min preincubation, 10 min reaction; read-out: Primary Dose Response Assay: Average EC50
Experimental: Compounds were evaluated for inhibition of the human activated kallikrein enzyme in two formats of an assay employing a fluorogenic peptide substrate. In one assay format, the concentrations of reagents were as follows: 20 mM Tris pH 7.5, 1 mM EDTA, 150 mM sodium chloride, 0.1% PEG-400, 0.1% Triton X-100, 500 pM activated kallikrein enzyme, 300 uM Pro-Phe-Arg-7-amido-4-methylcoumarin (PFR-AMC) substrate. Prior to reaction initiation with substrate, enzyme and inhibitors were preincubated for 30 min at room temperature. After initiation with substrate, reactions were incubated for 10 min at room temperature and fluorescence emission at 460 nm from 380 nm excitation measured with a microplate reader. In another assay format, the concentrations of reagents were as follows: 20 mM Tris pH 7.5, 1 mM EDTA, 150 mM sodium chloride, 0.1% PEG-400, 0.1% Triton X-100, 5 pM activated kallikrein enzyme, 300 uM PFR-AMC substrate. Prior to reaction initiation with substrate, enzyme and inhibitors were preincubated for 30 min at room temperature. After initiation with substrate, reactions were incubated for 18 hr at room temperature and fluorescence emission at 460 nm from 380 nm excitation measured with a microplate reader.
Table 49 provides the results of the assay in the format with 500 pM activated kallikrein assay. For the compounds listed in Table 49, the EC50 values are reported according to the following ranges: A≤1.0 nM; 1.0 nM<B≤10 nM; 10 nM<C≤100 nM; 100 nM<D≤1000 nM; 1000 nM<E≤6000 nM; 6000 nM<F.
Table 51 provides comparative plasma kallikrein inhibition potency in the assay format with 500 pM activated kallikrein assay (described in detail in a preceding example). For the compounds listed in Table 51, the EC50 values are reported according to the following ranges: A≤1.0 nM; 1.0 nM<B≤10 nM; 10 nM<C≤100 nM; 100 nM<D≤1000 nM; 1000 nM<E≤6000 nM; 6000 nM<F.

Sequence of human activated kallikrein enzyme (P03952 391-638 limits assumed): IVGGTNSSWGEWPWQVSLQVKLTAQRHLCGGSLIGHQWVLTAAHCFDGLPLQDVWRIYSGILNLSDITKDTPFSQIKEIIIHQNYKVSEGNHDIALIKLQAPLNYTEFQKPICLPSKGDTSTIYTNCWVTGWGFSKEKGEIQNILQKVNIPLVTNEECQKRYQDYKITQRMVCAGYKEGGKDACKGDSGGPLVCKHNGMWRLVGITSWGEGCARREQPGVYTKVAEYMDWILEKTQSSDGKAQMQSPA
Sequence of human activated kallikrein enzyme (P03952 20-390 partner limits assumed): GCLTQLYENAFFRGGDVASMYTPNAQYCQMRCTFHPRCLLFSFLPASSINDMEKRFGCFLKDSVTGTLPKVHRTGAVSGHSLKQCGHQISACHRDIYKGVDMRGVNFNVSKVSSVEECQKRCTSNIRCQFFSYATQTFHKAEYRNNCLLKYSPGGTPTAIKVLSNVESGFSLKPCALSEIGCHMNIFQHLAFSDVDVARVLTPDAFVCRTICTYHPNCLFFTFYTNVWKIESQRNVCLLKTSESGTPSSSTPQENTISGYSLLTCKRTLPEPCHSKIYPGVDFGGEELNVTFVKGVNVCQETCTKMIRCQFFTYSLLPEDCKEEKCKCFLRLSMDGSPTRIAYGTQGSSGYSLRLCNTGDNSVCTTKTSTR

SMILES | EC50 [nM]
COc1nc(NCc2cn3cc(C4CC4)ccc3n2)cc(NC(=O)[C@@H]2C[C@H]2c2cccc(Cl)c2)n1 (racemic) [Example 107, rac-(1S*,2S*)-2-(3-chlorophenyl)-N-(6-(((6-cyclopropylimidazo[1,2-a]pyridin-2-yl)methyl)amino)-2-methoxypyrimidin-4-yl)cyclopropane-1-carboxamide] | 10 to 100
Cc1ccnc([C@H]2C[C@@H]2C(=O)Nc2cc(NCc3cn4cc(C5CC5(F)F)cc(N5CC(=O)N(C)C5=O)c4n3)ncn2)n1 (stereo partly drawn) [Example 535, (1S,2S)-N-(6-(((6-(2,2-difluorocyclopropyl)-8-(3-methyl-2,4-dioxoimidazolidin-1-yl)imidazo[1,2-a]pyridin-2-yl)methyl)amino)pyrimidin-4-yl)-2-(4-methylpyrimidin-2-yl)cyclopropane-1-carboxamide] | < 1
COC(=O)C1CN(c2cc(C3CC3)cn3cc(CNc4cc(NC(=O)[C@H]5C[C@@H]5c5cccc(Cl)c5)ncn4)nc23)CCN1C (stereo partly drawn) [Example I-8, methyl 4-(2-(((6-((15,2S)-2-(3-chlorophenyl)cyclopropane-1-carboxamido)pyrimidin-4-yl)amino)methyl)-6-cyclopropylimidazo[1,2-α]pyridin-8-yl)-1-methylpiperazine-2-carboxylate] | 1 to 10
O=C(Nc1cc(NCc2cn3cc(C4CC4)ccc3n2)ncn1)[C@H]1C[C@@H]1c1cc(Cl)cnn1 (racemic) [Example I-178, rac-(1S*,2S*)-2-(5-chloropyridazin-3-yl)-N-(6-(((6-cyclopropylimidazo[1,2-a]pyridin-2-yl)methyl)amino)pyrimidin-4-yl)cyclopropane-1-carboxamide] | 100 to 1000
O=C(Nc1cc(N2C[C@@H](O)[C@@H](O)[C@@H]2c2cn3cc(C4CC4)ccc3n2)ncn1)[C@H]1C[C@@H]1c1cccc(Cl)c1 [Example 483, (1S,2S)-2-(3-chlorophenyl)-N-(6-((2S,3S,4R)-2-(6-cyclopropylimidazo[1,2-a]pyridin-2-yl)-3,4-dihydroxypyrrolidin-1-yl)pyrimidin-4-yl)cyclopropane-1-carboxamide] | 100 to 1000
O=C(Nc1cncnc1NCc1cn2cc(C3CC3)ccc2n1)[C@H]1C[C@@H]1c1cccc(Cl)c1 (racemic) [Example 78, rac-(1S*,2S*)-2-(3-chlorophenyl)-N-(4-(((6-cyclopropylimidazo[1,2-a]pyridin-2-yl)methyl)amino)pyrimidin-5-yl)cyclopropane-1-carboxamide] | 100 to 1000
Cc1ccnc([C@H]2C[C@@H]2C(=O)Nc2cc(N3C[C@@H](O)C[C@@H]3c3cn4cc(C5CC5)ccc4n3)ncn2)c1F (relative stereo) [Example 542, rac-(1S*,2S*)-N-(6-((2R,4S)-2-(6-cyclopropylimidazo[1,2-a]pyridin-2-yl)-4-hydroxypyrrolidin-1-yl)pyrimidin-4-yl)-2-(3-fluoro-4-methylpyridin-2-yl)cyclopropane-1-carboxamide] | 10 to 100
CN(C(=O)[C@H]1C[C@@H]1c1cccc(Cl)c1)c1cc(NCc2cn3cc(C4CC4)ccc3n2)ncn1 [Example 350, (1S,2S)-2-(3-chlorophenyl)-N-(6-(((6-cyclopropylimidazo[1,2-a]pyridin-2-yl)methyl)amino)pyrimidin-4-yl)-N-methylcyclopropane-1-carboxamide] | > 6000
O=C(Nc1nccc2nn(Cc3cn4cc(C5CC5)ccc4n3)cc12)[C@H]1C[C@@H]1c1cc(Cl)ccn1 [Example 577, (1S,2S)-2-(4-chloropyridin-2-yl)-N-(2-((6-cyclopropylimidazo[1,2-a]pyridin-2-yl)methyl)-2H-pyrazolo[4,3-c]pyridin-4-yl)cyclopropane-1-carboxamide] | < 1
C[C@H]1[C@H](C(=O)Nc2cc(NCc3cn4cc(C5CC5)ccc4n3)ncn2)[C@H]1c1cccc(Cl)c1 (single isomer, unassigned) [Example 508, (1R*,2R*,3S*)-2-(3-chlorophenyl)-N-(6-(((6-cyclopropylimidazo[1,2-a]pyridin-2-yl)methyl)amino)pyrimidin-4-yl)-3-methylcyclopropane-1-carboxamide] | > 6000
O=C(Nc1noc(NCc2cn3cc(C4CC4)ccc3n2)n1)[C@H]1C[C@@H]1c1cccc(Cl)c1 [Example 615, (1S,2S)-2-(3-chlorophenyl)-N-(5-(((6-cyclopropylimidazo[1,2-a]pyridin-2-yl)methyl)amino)-1,2,4-oxadiazol-3-yl)cyclopropane-1-carboxamide] | 1000 to 6000
CNc1nnc(NC(=O)[C@H]2C[C@@H]2c2nccc(C)n2)cc1OCc1cn2cc(C3CC3)cc(N3CC(=O)N(C)C3=O)c2n1 [Example 670, (1S,2S)—N-(5-((6-cyclopropyl-8-(3-methyl-2,4-dioxoimidazolidin-1-yl)imidazo[1,2-a]pyridin-2-yl)methoxy)-6-(methylamino)pyridazin-3-yl)-2-(4-methylpyrimidin-2-yl)cyclopropane-1-carboxamide] | < 1
Cc1ccnc([C@H]2C[C@@H]2C(=O)Nc2cc(N(Cc3cn4cc(C5CC5)cc(N5CC(=O)N(C)C5=O)c4n3)C(=O)OC(C)OC(=O)C(C)C)ncn2)n1 (stereo partly drawn) [Example 467, 1-((((6-cyclopropyl-8-(3-methyl-2,4-dioxoimidazolidin-1-yl)imidazo[1,2-a]pyridin-2-yl)methyl)(6-((1S,2S)-2-(4-methylpyrimidin-2-yl)cyclopropane-1-carboxamido)pyrimidin-4-yl)carbamoyl)oxy)ethyl isobutyrate] | 100 to 1000
N#Cc1cc(C2CC2)cn2cc(COc3ccnc(NC(=O)[C@H]4C[C@@H]4c4cccc(Cl)c4)c3)nc12 (racemic) [Example 567, rac-(1S*,2S*)-2-(3-chlorophenyl)-N-(4-((8-cyano-6-cyclopropylimidazo[1,2-a]pyridin-2-yl)methoxy)pyridin-2-yl)cyclopropane-1-carboxamide] | 10 to 100
O=C(Nc1cc(NCc2cn3cc(C4CC4)ccc3n2)ncn1)[C@H]1C[C@@H]1c1n[nH]c2ccc(Cl)cc12 (racemic) [Example I-191, rac-(1S*,2S*)-2-(5-chloro-1H-indazol-3-yl)-N-(6-(((6-cyclopropylimidazo[1,2-a]pyridin-2-yl)methyl)amino)pyrimidin-4-yl)cyclopropane-1-carboxamide] | > 6000
O=C(Nc1cc(NCc2cn3cc(C4CC4)ccc3n2)ncn1)[C@@]1(F)C[C@@H]1c1cccc(Cl)c1 (racemic) [Example I-184, rac-(1S*,2S*)-2-(3-chlorophenyl)-N-(6-(((6-cyclopropylimidazo[1,2-a]pyridin-2-yl)methyl)amino)pyrimidin-4-yl)-1-fluorocyclopropane-1-carboxamide] | 10 to 100
COc1cc([C@H]2C[C@@H]2C(=O)Nc2cc(NCc3cn4cc(C5CC5)ccc4n3)ncn2)cc(Cl)n1 (racemic) [Example I-187, rac-(1S*,2S*)-2-(2-chloro-6-methoxypyridin-4-yl)-N-(6-(((6-cyclopropylimidazo[1,2-a]pyridin-2-yl)methyl)amino)pyrimidin-4-yl)cyclopropane-1-carboxamide] | > 6000
CCc1cc(N2CC(=O)N(C)C2=O)c2nc(CNc3cc(NC(=O)[C@H]4C[C@@H]4c4nccc(C)n4)nc(C)n3)cn2c1 [Example 537, (1S,2S)-N-(6-(((6-ethyl-8-(3-methyl-2,4-dioxoimidazolidin-1-yl)imidazo[1,2-a]pyridin-2-yl)methyl)amino)-2-methylpyrimidin-4-yl)-2-(4-methylpyrimidin-2-yl)cyclopropane-1-carboxamide] | < 1
Cc1ccnc([C@H]2C[C@@H]2C(=O)Nc2cc(NCc3cn4cc(C5CC5)cc(N5CC(=O)N(C)C5=O)c4n3)n3ncnc3n2)n1 (racemic) [Example 624, rac-(1S*,2S*)—N-(7-(((6-cyclopropyl-8-(3-methyl-2,4-dioxoimidazolidin-1-yl)imidazo[1,2-a]pyridin-2-yl)methyl)amino)-[1,2,4]triazolo[1,5-a]pyrimidin-5-yl)-2-(4-methylpyrimidin-2-yl)cyclopropane-1-carboxamide] | < 1
Nc1cc(Cl)cc([C@H]2C[C@@H]2C(=O)Nc2cc(NCc3cn4cc(C5CC5)ccc4n3)ncn2)c1 (racemic) [Example I-256, rac-(1S*,2S*)-2-(3-amino-5-chlorophenyl)-N-(6-(((6-cyclopropylimidazo[1,2-a]pyridin-2-yl)methylamino)pyrimidin-4-yl)cyclopropane-1-carboxamide] | 10 to 100
CCOC(=O)CCOc1ccc(Cl)cc1[C@H]1C[C@@H]1C(=O)Nc1cc(NCc2cn3cc(C4CC4)ccc3n2)ncn1 (racemic) [Example 312, rac-ethyl 3-(4-chloro-2-((1S*,2S*)-2-((6-(((6-cyclopropylimidazo[1,2-a]pyridin-2-yl)methyl)amino)pyrimidin-4-yl)carbamoyl)cyclopropyl)phenoxy)propanoate] | 10 to 100
